The values below come from US5393786A, “Method for treating inflammation, ischemia-induced cell damage and muscular dystrophy” (priority 1993, dated 1995).

SMILES strings stand for the structures. Read-outs that look alike come from different tables or passages of the source.

Data set [1] relates to ischemia-induced cell damage caused by middle cerebral artery occlusion. As to the kind of experiment: Middle Cerebral Artery Occlusion Stroke Model. The conditions noted are these: for Infarct Volume: saline. The data set is classed as in vivo, male spontaneously hypertensive rats. The text has this:
Strokes were also produced in rats by occluding the middle cerebral artery according to the following procedure. Male spontaneously hypertensive rats were housed in groups of three to four per cage and allowed free access to food and water. The animals were anesthetized with a mixture of 2.5% halothane and air. The anesthetized rats then underwent the following surgical procedure.
A femoral artery of each rat was cannulated to monitor mean arterial pressure and a jugular cannula was inserted in order to provide a means for administering test compounds intravenously. […] The ventral neck area and the area behind each animal's right eye were shaved and washed with antiseptic solution. The right common carotid artery was dissected free of connective tissue through a midline cervical incision and the vessel permanently occluded with a silk ligature. Next, a 1 cm incision perpendicular to, and bisecting a line between the lateral canthus of the right eye and the external auditory canal, was made to expose the temporalis muscle which was retracted and partially excised. Using a dissecting microscope, the right middle cerebral artery was exposed through a 2 mm burr hole drilled 2-3 mm rostral to the fusion of the zygomatic arch with a squamosal bone. Drilling was done under a continuous drip of a 0.9% saline solution to prevent heat injury of the underlying cortex. The dura was cut and retracted to expose the middle cerebral artery.
This artery was occluded in two ways. The first method of occlusion involved permanent cauterization of the artery so that blood flow through the artery was completely eliminated. The second method of occulsion was only temporary (lasting two hours) and involved clamping the artery with microaneurism clips. Test compounds were administered at various times before, during and after occlusion. Each animal's body temperature was maintained at 37° C. during testing using a rectal thermometer connected to a heating pad.
Twenty-four hours after tandem middle cerbral carotid artery occlusion, the test animals were sacrificed and their brains removed and frozen over dry ice. Coronal sections 20 microns thick were cut at half millimeter intervals in a cryostat at -20° C. and dried on a hot plate at 60° C. The sections were then stained with cresyl violet. […] A total infarct volume was then calculated using a computer program that summed all sectional areas measured multiplied by the interval thickness. The lower the infarcted volume obtained, the lower the amount of cell damage caused by the stroke. The level of significance was obtained using Student's "t-test".

Data set [2] has as its system adjuvant-induced arthritis (uninjected hind paw). As to the kind of experiment: Developing Adjuvant-Induced Arthritis Test in Rats. The note with it: po, 720 h, AUC days 16-30. It is filed as in vivo, male Lewis-Wistar rats.
The subject of data set [3] is hippocampal CA1 pyramidal cell layer. As to the kind of experiment: Stroke model in rats (four-vessel occlusion), hippocampal CA1 damage.
From the text: (§1) Strokes were produced in rats by occluding the four arteries that supply blood to the brain according to the following procedure. Male Wistar rats (250-280 g; Hilltop Laboratories, Scottsdale, Pa.) were anesthetized with metofane and placed into a stereotaxic instrument. A longitudinal incisio was made on the dorsal surface of the neck. The neck muscles were reflected to expose the dorsal surface of the spinal column. The two vertebral arteries were exposed where they pass through the first cervica vertebra. Both arteries were permanently occluded by the application of electrocautery. After coagulation of the vertebral arteries, the rat was removed from the stereotaxic instrument and the surgical wound was sutured. Two longitudinal incisions were then made on the ventral surface of the neck. The two common carotid arteries were exposed and dissected free from surrounding nerves and connective tissue. Reversible atraumatic clamps, fabricated mainly from silicon rubber tubing, were placed around each carotid artery in a manner such that the vessels were not traumatize or occluded. The clamps were externalized through the ventral neck incision. A suture was also placed through the neck dorsal to the carotids, esophagus and trachea, and tied loosely behind the neck. This suture is tied tightly at the time ischemia is induced in order to restrict collateral circulation reaching the brain through the dorsal muscles of the neck. The surgical wounds were then closed. After the surgery, the rats were allowed to recover for 24 hours (free access to water, but no food during this period).
(§2) On the day of testing, test compounds were administered at various times before stroke induction. Strokes (cerebral ischemia) were induced by tightening the clamps around the carotids, thereby stopping blood flow in the carotids. Rats in which strokes were successfully produced lost the righting reflex and became unresponsive to stimuli. Collateral circulatio through the dorsal neck muscles was then restricted by tightening the previously implanted suture. […] After 30 minutes of ischemia, the carotid clamps wer released, the neck suture was loosened, and blood flow to the brain was restored. Following the period of ischemia, the rats were allowed free access to food and water. Rats were again treated with test compounds at various times after the stroke. On the third day after the stroke the animals were sacrificed and their brains were removed, frozen and sectioned through the striatum and hippocampus. Sections were mounted on glass slides and stained with hematoxylin and eosin.
(§3) Two of the areas of the brain that are most susceptible to ischemia induce damage, both in rats and humans, are the CA1 pyramidal cell layer of the hippocampus and the striatal cell layer of the striatum. In animals that remain unresponsive for the 30 minute period of ischemia, the CA1 pyramidal cell layer and the striatal cell layer are completely destroyed. These layers of cells were examined microscopically in histological sections prepared from the hippocampus and striatum. Brain damage was rated according to the following scale:
(§4) 0=no damage, completely intact cell layer
(§5) 1=mild damage, onethird of cell layer dead
(§6) 2=moderate damage, twothirds of cell layer dead
(§7) 3=severe damage, complete destruction of cell layer
(§8) Damage in 10-12 sections from each brain was assessed in order to obtain a accurate estimate of damage. An average damage score was calculated for each treatment group. Scores from treated groups were compared statistically with scores from control groups which received only the vehicle used to suspend the compounds. The level of significance was determined using the Mann WhitneyU-test.
Data set [4] deals with striatal cell layer of the striatum. Briefly: Stroke model in rats (four-vessel occlusion), striatal damage. The data set is classed as in vivo, male Wistar rats.
From the text: as §1, §2, §3, §4, §5, §6, §7, §8
In another data set the test system is dystrophic mice (dy/dy). As to the kind of experiment: Muscular Dystrophy Animal Model, life span of dystrophic mice. It is filed as in vivo. The note with it: 0.03 wgt % of compound in diet; control 73 days. As to the method: Dystrophic mice (dy/dy) were obtained from Jackson Laboratories after weaning (approximately 21 days) and treatment with the compound shown in Table IV was begun at the first sign of dystrophy. The compound was administered in the diet and lifespan was measured during the course of treatment. The food and water sources were located in different parts of the cage requiring the animals to walk from the food source to the water source to survive.

For data set [5] the following is noted: Chemical Abstracts, 74, 96312e (1971); cited from earlier work.
The conditions of data set [6]: Chemical Abstracts, 78, 132326f (1973); cited from earlier work.
Setting [7] is: 50 mg/kg rat weight × 29, p.o. once daily, read-out: % Inhibition of Uninjected Paw Volume Inflammation, Days 16-30.

For `CNCCc1cc(C(C)(C)C)c(O)c(C(C)(C)C)c1.Cl` [4-[2-(methylamino)ethyl]-2,6-bis(1,1-dimethylethyl)phenol hydrochloride], the “hypothermia (footnote +++)” value in data set [1] (dose of 50/10 i.v., permanent occlusion) is “severe hypothermia”. In addition, the “Infarct Volume” value in data set [1] (permanent occlusion, 30/5 mg/kg i.v. (per hour), time c, control 129 ± 14) is listed as 130 ± 16 (mm)^3. For the same molecule, the inhibition in vivo at 25 mg/kg in data set [2] (Rattus norvegicus, read-out: % Inhibition of Uninjected Paw Volume Inflammation, Days 16-30, 25 mg/kg rat weight × 29, p.o. once daily) turned out to be 72.2%.

For the molecule `CN(C)Cc1cc(C(C)(C)C)c(O)c(C(C)(C)C)c1.Cl` [4-[(dimethylamino)methyl]-2,6-bis(1,1-dimethylethyl)phenol hydrochloride], the “Damage Score, Hippocampus” value in data set [3] (scale 0 (no damage)-3 (severe), mean ± SE, 50 mg/kg orally, 2% acacia, time a (15 min pre, 4 h and 24 h postischemia), control 2.7 ± 0.2) was 1.7 ± 0.3. Besides, the “Infarct Volume” value in data set [1] (permanent occlusion, 50/10 mg/kg i.v. (per hour), time c (15 min before occlusion, then 24 h), control 136 ± 7) was 91 ± 12 (mm)^3; in data set [1] (temporary occlusion, 50/50/10 mg/kg i.p./i.p./i.v. (per hour), time a (15 min before clamping, 15 min before clamp removal, then 24 h), control 114.4 ± 14.1), 47.9 ± 3.4 (mm)^3; in data set [1] (temporary occlusion, 50/50/10 mg/kg i.p./i.p./i.v. (per hour), time b (15 min after clamping, 15 min before clamp removal, then 24 h), control 101.7 ± 9.1) it was 35.5 ± 5.3 (mm)^3; in data set [1] (temporary occlusion, 50/50/10 mg/kg i.p./i.p./i.v. (per hour), time b, rats fasted overnight, control 61.9 ± 7.9), 23.1 ± 4.9 (mm)^3. In addition, in data set [2] (Rattus norvegicus, read-out: % Inhibition of Uninjected Paw Volume Inflammation, Days 16-30, 50 mg/kg rat weight × 29, p.o. once daily), the inhibition in vivo at 50 mg/kg stood at 94.8%. In addition, the “Damage Score, Striatum” value in data set [4] (scale 0 (no damage)-3 (severe), mean ± SE, 50 mg/kg orally, 2% acacia, time a (15 min pre, 4 h and 24 h postischemia), control 2.6 ± 0.2) is recorded as 1.1 ± 0.2.

For `CN(C)Cc1cc(C(C)(C)C)c(O)c(C(C)(C)C)c1` [4-[(dimethylamino)methyl]-2,6-bis(1,1-dimethylethyl)phenol], the “Damage Score, Hippocampus” value in data set [3] (scale 0-3, mean ± SE, 100 mg/kg orally, 2% acacia, time b (2 h pre, 24 h postischemia), control 2.8 ± 0.2) is 0.8 ± 0.4. For the same molecule, the inhibition in vivo at 50 mg/kg in data set [2] (setting [7]) came to 59.7%. Moreover, in the data set on dystrophic mice (dy/dy), the “Average Life Span” value was 120 days. Further, the “Damage Score, Striatum” value in data set [4] (scale 0-3, mean ± SE, 100 mg/kg orally, 2% acacia, time b (2 h pre, 24 h postischemia), control 2.5 ± 0.5) came out at 0.8 ± 0.3.

Take `CCCN(CCC)Cc1cc(C(C)(C)C)c(O)c(C(C)(C)C)c1.Cl` [4-[(dipropylamino)methyl]-2,6-bis(1,1-dimethylethyl)phenol hydrochloride]: the “Damage Score, Hippocampus” value in data set [3] (scale 0-3, mean ± SE, 100 mg/kg orally, 2% acacia, time c (30 min pre, 4 h and 24 h postischemia), control 2.5 ± 0.3) came out at 1.0 ± 0.4. For the same molecule, in data set [1] (temporary occlusion, 20/5 mg/kg i.v. (per hour), time d, control 123 ± 14), the “Infarct Volume” value is recorded as 143 ± 12 (mm)^3. In addition, the inhibition in vivo at 50 mg/kg in data set [2] (setting [7]) turned out to be 64.4%. Besides, the “Damage Score, Striatum” value in data set [4] (scale 0-3, mean ± SE, 100 mg/kg orally, 2% acacia, time c (30 min pre, 4 h and 24 h postischemia), control 1.4 ± 0.3) stood at 1.2 ± 0.4.

Take `CCNCc1cc(C(C)(C)C)c(O)c(C(C)(C)C)c1.Cl` [4-[(ethylamino)methyl]-2,6-bis(1,1-dimethylethyl)phenol hydrochloride]: in data set [3] (scale 0-3, mean ± SE, 20 mg/kg / 5 mg/kg per hour i.v., 10% DMSO/TWEEN 80/NaCl, time d (immediately after ischemia, then continuous 24 h), control 2.83 ± 0.12), the “Damage Score, Hippocampus” value came out at 1.23 ± 0.47. The “Infarct Volume” value in data set [1] (permanent occlusion, 20/5 mg/kg i.v. (per hour), time c, control 172 ± 19) is recorded as 122 ± 12 (mm)^3; in data set [1] (temporary occlusion, 10/5 mg/kg i.v., time f (one hour after clamping, then upon clamp removal for 24 h), control 128 ± 17), 74 ± 8 (mm)^3. For the same molecule, the inhibition in vivo at 5 mg/kg in data set [2] (5 mg/kg rat weight × 29, p.o. once daily, read-out: % Inhibition of Uninjected Paw Volume Inflammation, Days 16-30) was determined as 27.9%. Besides, in data set [2] (10 mg/kg rat weight × 29, p.o. once daily, read-out: % Inhibition of Uninjected Paw Volume Inflammation, Days 16-30), the inhibition in vivo at 10 mg/kg came out at 19.6%. In addition, in data set [2] (20 mg/kg rat weight × 29, p.o. once daily, read-out: % Inhibition of Uninjected Paw Volume Inflammation, Days 16-30), the inhibition in vivo at 20 mg/kg amounted to 50.8%. Moreover, the inhibition in vivo at 25 mg/kg in data set [2] (25 mg/kg rat weight × 29, p.o. once daily, read-out: % Inhibition of Uninjected Paw Volume Inflammation, Days 16-30) is 96.5%. The “Damage Score, Striatum” value in data set [4] (scale 0-3, mean ± SE, 20 mg/kg / 5 mg/kg per hour i.v., 10% DMSO/TWEEN 80/NaCl, time d (immediately after ischemia, then continuous 24 h), control 2.37 ± 0.28) is reported as 1.20 ± 0.42.

Turning to `CNCc1cc(C(C)(C)C)c(O)c(C(C)(C)C)c1.Cl` [4-[(methylamino)methyl]-2,6-bis(1,1-dimethylethyl)phenol hydrochloride], the “Damage Score, Hippocampus” value is 0.75 ± 0.3 in data set [3] (scale 0-3, mean ± SE, 10 mg/kg / 10 mg/kg per hour i.v., saline, time d (immediately after ischemia, then continuous 24 h), control 2.4 ± 0.3) and 0.66 ± 0.3 in data set [3] (scale 0-3, mean ± SE, 50 mg/kg / 10 mg/kg per hour i.v., saline, time d (immediately after ischemia, then continuous 24 h), control 2.6 ± 0.3). Moreover, the “antioxidative activity of liver lipids” value in data set [5] is reported as “increases the antioxidative activity of liver lipids”. Moreover, in data set [5], the “liver tissue regeneration following a partial hepatectomy” value is listed as “increasing liver tissue regeneration following a partial hepatectomy”. The “Infarct Volume” value is 123 ± 18 (mm)^3 in data set [1] (permanent occlusion, 50 mg/kg i.v. single dose, time e (10 min before occlusion), control 140 ± 23); 128 ± 11 (mm)^3 in data set [1] (permanent occlusion, 10/10 mg/kg i.v. (per hour), time c, control 145 ± 12); 112 ± 7 (mm)^3 in data set [1] (permanent occlusion, 20/5 mg/kg i.v. (per hour), time c, control 133 ± 16); 90 ± 18 (mm)^3 in data set [1] (permanent occlusion, 20/10 mg/kg i.v. (per hour), time c, control 148 ± 9); 76 ± 12 (mm)^3 in data set [1] (permanent occlusion, 50/10 mg/kg i.v. (per hour), time c, control 142 ± 7). Moreover, the inhibition in vivo at 50 mg/kg in data set [2] (setting [7]) came to 119%. Further, the “Damage Score, Striatum” value in data set [4] (scale 0-3, mean ± SE, 10 mg/kg / 10 mg/kg per hour i.v., saline, time d (immediately after ischemia, then continuous 24 h), control 2.6 ± 0.3) came to 1.97 ± 0.4; in data set [4] (scale 0-3, mean ± SE, 50 mg/kg / 10 mg/kg per hour i.v., saline, time d (immediately after ischemia, then continuous 24 h), control 2.3 ± 0.4), 1.13 ± 0.4.

Turning to `CNCc1cc(C(C)(C)C)c(O)c(C(C)(C)C)c1` [N-methyl-3,5-di-t-butyl-4-hydroxybenzylamine], the “rate of blood deoxygenation” value in data set [6] is reported as “increase the rate of blood deoxygenation”.
